Tested on: 931267-113-T-J1-PDC KRAS spheroid with HUVEC/MSC, viability
Assay: Anticancer human tumor 931267-113-T-J1-PDC patient-derived colon adenocarcinoma cell line growth inhibition [KRAS2]
Settings: for IC50: curve of first compound; for viability, T/C: stronger effect = lower value
Source text: Multicellular complex tumor spheroid response to RAS pathway inhibitors in combination with a targeted agents in patient-derived cell lines with oncogenic KRAS variants from multiple cancer types
A high-throughput screen of multi-cell type tumor spheroids was designed to identify active combinations of targeted small molecules and KRAS pathway inhibitors. Complex spheroids include a stromal component modeled by human endothelial cells (HUVEC) and fibroblasts modeled by human mesenchymal stem cells (MSCs). The concentration ranges selected for each drug and investigational agent were based upon clinically achievable concentrations if the clinical Cmax of the agent was known.
Compounds. The drugs and investigational agents: BI-3406 (NSC825286), BAY-293 (NSC824723), batoprotafib (TNO155; NSC825523), sotorasib (AMG 510; NSC818433), MRTX1257 (NSC819558), elimusertib (BAY 1895344; NSC800525), molibresib (GSK525762; NSC774829), temuterkib (LY3214996; NSC803410), venetoclax (NSC766270), alisertib (NSC759677), olaparib (NSC753686), talazoparib (NSC767125), erdafitinib (NSC781556), ipatasertib (NSC767898), cabozantinib (NSC761068), nintedanib (NSC756659), abemaciclib (NSC768073), docetaxel (NSC628503), trametinib (NSC758246), and sapanisertib (NSC764658) were obtained from the National Cancer Institute (NCI) Developmental Therapeutics Program Chemical Repository. The FDA-approved anticancer drug set is available from the Developmental Therapeutics Program. […] The stock solutions were prepared in dimethyl sulfoxide (DMSO, Sigma-Aldrich, St. Louis, MO, cat. D2650) at 800-fold the tested concentration and stored at -70 degrees C prior to their use. All drugs and investigational agents were tested over a range starting from a high concentration at or near the clinical Cmax and decreasing in half-log increments. If the clinical Cmax for an agent had not been determined, the highest concentration tested was 10 microM.
Cell Culture. All cells were maintained in an incubator at 37 degrees C and 5% CO2 with 95% humidity. The PDC lines were cultured according to standard operating procedures established by the NCI PDMR (https://pdmr.cancer.gov/sops/default.htm). Briefly, all PDCs were thawed and cultured in Matrigel-coated flasks prepared with a working solution of 1X Ham's F-12 nutrient mix, without supplementation (Invitrogen, Waltham, MA, cat. 11765054), 100 U/mL penicillin-streptomycin (Invitrogen, cat. 15140122), and 2.5% Matrigel (Corning Inc., Corning, NY, cat. 354248) for the first three passages. All PDCs were cultured in complete DMEM/F-12 media containing advanced DMEM/F-12 (Invitrogen, cat. 12634028), 4.9% defined fetal bovine serum, heat inactivated (HyClone Laboratories Inc., Logan, UT, cat. SH30070.03HI), 389 ng/mL hydrocortisone (Sigma-Aldrich, cat. H4001), 9.7 ng/mL human EGF recombinant protein (Invitrogen, cat. PHG0313), 23.4 microg/mL adenine (Sigma-Aldrich, cat. A2786), 97.3 U/mL penicillin-streptomycin (Invitrogen, cat. 15140122), 1.9 mM L-glutamine (Invitrogen, cat. 25030081), and 9.7 microM Y-27632 dihydrochloride (Tocris Bioscience, Bristol, United Kingdom, cat. 1254). The PDCs were cultured in complete DMEM/F12 media without 9.7 microM Y-27632 dihydrochloride for at least two passages prior to the screen. The established cell line HOP-62 was cultured in RPMI 1640 medium, HEPES (Invitrogen, cat. 22400105) with 10% defined fetal bovine serum (HyClone Laboratories Inc., cat. SH30070.03) and 2 mM L-glutamine (Invitrogen, cat. 25030081). The pooled donor HUVEC were cultured in endothelial cell growth medium 2 (PromoCell, Heidelberg, Germany, cat. C-22011) and the hMSC were cultured in mesenchymal stem cell growth medium 2 (PromoCell, cat. C-28009). For all experiments, HUVEC and hMSC were used at passages </=5, while the malignant cell lines were used at passages </=15. […]

[1] = second compound 0.1 µM, first compound 0.0316 µM
[2] = second compound 0.316 µM, first compound 0.0316 µM
[3] = second compound 1 µM, first compound 0.0316 µM
[4] = second compound 3.16 µM, first compound 0.0316 µM
[5] = second compound 10 µM, first compound 0.0316 µM
[6] = second compound 0.1 µM, first compound 0.1 µM
[7] = second compound 0.1 µM, first compound 0.316 µM
[8] = second compound 0.1 µM, first compound 1 µM
[9] = second compound 0.1 µM, first compound 3.16 µM
[10] = second compound 0.1 µM, first compound 10 µM
[11] = second compound 0.316 µM, first compound 0.1 µM
[12] = second compound 0.316 µM, first compound 0.316 µM
[13] = second compound 0.316 µM, first compound 1 µM
[14] = second compound 0.316 µM, first compound 3.16 µM
[15] = second compound 0.316 µM, first compound 10 µM
[16] = second compound 1 µM, first compound 0.1 µM
[17] = second compound 1 µM, first compound 0.316 µM
[18] = second compound 1 µM, first compound 1 µM
[19] = second compound 1 µM, first compound 3.16 µM
[20] = second compound 1 µM, first compound 10 µM
[21] = second compound 3.16 µM, first compound 0.1 µM
[22] = second compound 3.16 µM, first compound 0.316 µM
[23] = second compound 3.16 µM, first compound 1 µM
[24] = second compound 3.16 µM, first compound 3.16 µM
[25] = second compound 3.16 µM, first compound 10 µM
[26] = second compound 10 µM, first compound 0.1 µM
[27] = second compound 10 µM, first compound 0.316 µM
[28] = second compound 10 µM, first compound 1 µM
[29] = second compound 10 µM, first compound 3.16 µM
[30] = second compound 10 µM, first compound 10 µM
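Further: compound exposure lasted 7 days before the readout.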
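Wherever viability, T/C is given: 100% = DMSO vehicle control viability.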

## CC(=O)Nc1cccc(-n2c(=O)n(C3CC3)c(=O)c3c(Nc4ccc(I)cc4F)n(C)c(=O)c(C)c32)c1 + C=CC(=O)N1CCN(c2nc(=O)n(-c3c(C)ccnc3C(C)C)c3nc(-c4c(O)cccc4F)c(F)cc23)C(C)C1
Second compound 0.1 µM
  IC50: 10.5 nM
Second compound 0.316 µM
  IC50: 9.41 nM
Second compound 1 µM
  IC50: 11.3 nM
Second compound 3.16 µM
  IC50: 31.6 nM
Second compound 10 µM
  IC50: 2.79 nM
Second compound 0.1 µM, first compound 0.0001 µM
  viability, T/C: 88.7%
Second compound 0.1 µM, first compound 0.000316 µM
  viability, T/C: 81.9%
Second compound 0.1 µM, first compound 0.001 µM
  viability, T/C: 66.7%
Second compound 0.1 µM, first compound 0.00316 µM
  viability, T/C: 60.1%
Second compound 0.1 µM, first compound 0.01 µM
  viability, T/C: 62.9%
[1]
  viability, T/C: 9.67%
Second compound 0.316 µM, first compound 0.0001 µM
  viability, T/C: 97.1%
Second compound 0.316 µM, first compound 0.000316 µM
  viability, T/C: 94.5%
Second compound 0.316 µM, first compound 0.001 µM
  viability, T/C: 74.1%
Second compound 0.316 µM, first compound 0.00316 µM
  viability, T/C: 71.3%
Second compound 0.316 µM, first compound 0.01 µM
  viability, T/C: 53.8%
[2]
  viability, T/C: 10.6%
Second compound 1 µM, first compound 0.0001 µM
  viability, T/C: 88.5%
Second compound 1 µM, first compound 0.000316 µM
  viability, T/C: 97.4%
Second compound 1 µM, first compound 0.001 µM
  viability, T/C: 93.9%
Second compound 1 µM, first compound 0.00316 µM
  viability, T/C: 59.5%
Second compound 1 µM, first compound 0.01 µM
  viability, T/C: 62.6%
[3]
  viability, T/C: 12.9%
Second compound 3.16 µM, first compound 0.0001 µM
  viability, T/C: 123%
Second compound 3.16 µM, first compound 0.000316 µM
  viability, T/C: 99%
Second compound 3.16 µM, first compound 0.001 µM
  viability, T/C: 62.8%
Second compound 3.16 µM, first compound 0.00316 µM
  viability, T/C: 54%
Second compound 3.16 µM, first compound 0.01 µM
  viability, T/C: 64.7%
[4]
  viability, T/C: 19.6%
Second compound 10 µM, first compound 0.0001 µM
  viability, T/C: 85.8%
Second compound 10 µM, first compound 0.000316 µM
  viability, T/C: 82.4%
Second compound 10 µM, first compound 0.001 µM
  viability, T/C: 49.1%
Second compound 10 µM, first compound 0.00316 µM
  viability, T/C: 50.9%
Second compound 10 µM, first compound 0.01 µM
  viability, T/C: 44.7%
[5]
  viability, T/C: 28.3%

## COc1cc(Nc2ncc3c(n2)-c2ccc(Cl)cc2C(c2c(F)cccc2OC)=NC3)ccc1C(=O)O + C=CC(=O)N1CCN(c2nc(=O)n(-c3c(C)ccnc3C(C)C)c3nc(-c4c(O)cccc4F)c(F)cc23)C(C)C1
Second compound 0.1 µM
  IC50: > 10000 nM
Second compound 0.316 µM
  IC50: > 10000 nM
Second compound 1 µM
  IC50: > 10000 nM
Second compound 3.16 µM
  IC50: > 10000 nM
Second compound 10 µM
  IC50: > 10000 nM
[1]
  viability, T/C: 102%
[6]
  viability, T/C: 114%
[7]
  viability, T/C: 122%
[8]
  viability, T/C: 99.9%
[9]
  viability, T/C: 96.8%
[10]
  viability, T/C: 103%
[2]
  viability, T/C: 101%
[11]
  viability, T/C: 93.8%
[12]
  viability, T/C: 98%
[13]
  viability, T/C: 108%
[14]
  viability, T/C: 95.2%
[15]
  viability, T/C: 72.7%
[3]
  viability, T/C: 129%
[16]
  viability, T/C: 109%
[17]
  viability, T/C: 107%
[18]
  viability, T/C: 127%
[19]
  viability, T/C: 106%
[20]
  viability, T/C: 83.3%
[4]
  viability, T/C: 126%
[21]
  viability, T/C: 109%
[22]
  viability, T/C: 103%
[23]
  viability, T/C: 110%
[24]
  viability, T/C: 107%
[25]
  viability, T/C: 88.4%
[5]
  viability, T/C: 136%
[26]
  viability, T/C: 111%
[27]
  viability, T/C: 118%
[28]
  viability, T/C: 127%
[29]
  viability, T/C: 119%
[30]
  viability, T/C: 90.3%

## COc1cc2nccc(Oc3ccc(NC(=O)C4(C(=O)Nc5ccc(F)cc5)CC4)cc3)c2cc1OC + C=CC(=O)N1CCN(c2nc(=O)n(-c3c(C)ccnc3C(C)C)c3nc(-c4c(O)cccc4F)c(F)cc23)C(C)C1
Second compound 0.1 µM
  IC50: > 10000 nM
Second compound 0.316 µM
  IC50: 3110 nM
Second compound 1 µM
  IC50: > 10000 nM
Second compound 3.16 µM
  IC50: 2580 nM
Second compound 10 µM
  IC50: 723 nM
[1]
  viability, T/C: 115%
[6]
  viability, T/C: 96.3%
[7]
  viability, T/C: 91.7%
[8]
  viability, T/C: 104%
[9]
  viability, T/C: 65.1%
[10]
  viability, T/C: 69%
[2]
  viability, T/C: 105%
[11]
  viability, T/C: 96.6%
[12]
  viability, T/C: 97.1%
[13]
  viability, T/C: 96.3%
[14]
  viability, T/C: 49.3%
[15]
  viability, T/C: 48.5%
[3]
  viability, T/C: 108%
[16]
  viability, T/C: 115%
[17]
  viability, T/C: 98.4%
[18]
  viability, T/C: 109%
[19]
  viability, T/C: 63.7%
[20]
  viability, T/C: 57.2%
[4]
  viability, T/C: 106%
[21]
  viability, T/C: 92.8%
[22]
  viability, T/C: 98.2%
[23]
  viability, T/C: 82.3%
[24]
  viability, T/C: 43%
[25]
  viability, T/C: 34.4%
[5]
  viability, T/C: 82.6%
[26]
  viability, T/C: 80.6%
[27]
  viability, T/C: 54.3%
[28]
  viability, T/C: 58.1%
[29]
  viability, T/C: 10.7%
[30]
  viability, T/C: 18.5%

Source: PubChem BioAssay AID1963863 (Molecular Pharmacology Branch, DTP, NCI, 2024)
